Results on two compounds are retold here after US5919769A, “Fucose derivatives, drugs containing the same as active ingredient, and intermediates for producing the same” (Kanebo, Ltd, priority 1995, dated 1999).

One may read the IC50 as the point on the concentration scale where inhibition reaches its midpoint.

The target of data set [1] is L-selectin. The data set can be described thus: Inhibitory test on the binding of L-selectin to sialyl Le^X (selectin-IgG chimera). The following applies: inhibition of L-selectin IgG chimera binding to sialyl Le^X-pentaceramide. The method, then:
(§1) The experiment was carried out according to the method using selectin-IgG chimera, which was reported by Foxall, C. et al. (J. Cell Biol., 117, 895-902 (1992)).
(§2) Sialyl Le^X -pentaceramide was dissolved in 50% methanol in distilled water, and the solution was put into a 96-well plate in an amount of 100 pmol/well. The plate was allowed to stand at room temperature overnight, and the solvent therein was evaporated. The plate was washed with distilled water, and subjected to blocking with 50 mM imidazole buffer (pH 7.2) containing 5% BSA (bovine serum albumin) and 1 mM calcium chloride at room temperature for one hour.
(§3) Separately, to 500-fold diluted solution of each biotinylated anti-human IgG Fc and streptavidin-alkaline phosphatase conjugate with a 50 mM imidazole buffer (pH 7.2) containing 1% BSA and 1 mM calcium chloride, P-selectin IgG chimera was added to give a final concentration of 40 μg/ml, and the mixture was incubated at room temperature for 30 minutes to give the complex solution.
(§4) A test compound was dissolved in DMSO (except that the test compound h was dissolved in distilled water) to give 10 mM aqueous solution thereof, which was serially diluted with 50 mM imidazole buffer (pH 7.2) containing 1% BSA and 1 mM calcium chloride to give the solutions in 8 various concentrations (two-fold serial dilution from 20 μM). The test compound solution in each concentration and the above complex solution were mixed in equal volume, and the mixture was incubated at room temperature for 30 minutes to give the reaction solution.
(§5) After the blocking was completed, the blocking solution in the above plate was discarded, and the plate was washed with 50 mM imidazole buffer (pH 7.2), and thereto was added the above reaction solution in an amount of 50 μl/well. The plate was incubated at 37° C. for 45 minutes, and then washed three times with 50 mM imidazole buffer (pH 7.2) and washed three times with distilled water. 1M diethanolamine (pH 9.8) containing 0.01% magnesium chloride and 1 mg/ml p-nitrophenyl phosphate was put into each well in an amount of 50 μl/well, and the plate was allowed to stand for 1 to 2 hours for color development. The absorbance at 405 nm was measured, and the binding rate (%) was calculated by the following equation, based on the absorbance (X) of the wells containing a test compound at various concentrations and the absorbance (A) of the wells containing no test compound.
(§6) IC50 was evaluated by probit method from the binding rate.
Inhibitory test on the binding of L-selectin to sialyl Le^X :
The same procedures of Experiment 1 were repeated except that L-selectin IgG chimera (40 μg/ml) was used instead of P-selectin IgG chimera (40 μg/ml).

Data set [2] is described as follows: Inhibitory effects on ear swelling (ovalbumin-sensitized mice). Type of data set: in vivo, Female BALB/c mice. The settings on record: tail vein at 2, 5 and 8 hours, 24 hours after induction. The method, then: Inhibitory effects on ear swelling:
(§7) Female BALB/c mice (6-weeks old) were sensitized by intraperitoneal injection of saline (0.5 ml) containing ovalbumin ([…]) and aluminum hydroxide gel (4 mg). Two weeks after the sensitization, a 1 mg/ml solution of ovalbumin in phosphate buffered saline (10 μl) was subcutaneously injected to the mice at both of the ears to induce the inflammatory response. In the non-inflammation group, phosphate buffered saline was subcutaneously injected to the sensitized mice instead.
(§8) The test compound was dissolved in 0.01N-NaOH-saline so as to be a concentration of 1 mg/ml, and the solution was diluted with saline. The test compound solution thus prepared was injected to the mice at the tail vein, at 2, 5 and 8 hours after the induction of inflammatory response, in a dosage volume of 0.1 ml/10 g of body weight (the treated group). In the control group, saline only was injected to the mice.
Twenty-four hours after the induction of inflammatory response, both of the ears were cut to collect a piece of 6 mm diameter, and the weight thereof was measured. The ear weight per area was used as an index for ear swelling. The inhibitory rate on ear swelling was calculated by the following equation. [formula] Wexp: Average ear weight in the treated group Wnega: Average ear weight in the non-inflammation group
Wcont: Average ear weight in the control group

Data set [3] has as its target P-selectin. Put plainly: Inhibitory test on the binding of P-selectin to sialyl Le^X (selectin-IgG chimera). The following applies: inhibition of P-selectin IgG chimera binding to sialyl Le^X-pentaceramide. As to the method: Inhibitory test on the binding of P-selectin to sialyl Le^X :
as §1, §2, §3, §4, §5, §6

Data set [4] has as its system cell infiltration. Put plainly: Inhibitory effects on the peritoneal inflammation induced by thioglycollate (cell infiltration, MPO activity). The settings on record: 10 mg/kg, tail vein just before and one hour after induction, peritoneal exudate cells. Type of data set: in vivo, Male BALB/C mice. As to the method:
Inhibitory effects on the peritoneal inflammation induced by thioglycollate:
Male BALB/C mice (11-weeks old) were peritoneally injected with 3% thioglycollate medium (1 ml) to induce the inflammation. In the non-inflammation group, saline was peritoneally injected to the mice. Two hours thereafter, the mice were killed with […], and the peritoneal cavity was washed with a phosphate buffered saline containing 0.1% BSA, 0.5 mM EDTA, 10 U/ml heparin to collect the exudate cells. The red blood cells were lysed, and the exudate cells were lysed in 50 mM potassium phosphate buffer containing 0.5% hexadecyltrimethylammonium bromide. The MPO activity in the supernatant was measured according to the Bradley's method (see the above reference).
The test compound was dissolved in 0.0012M arginine-containing saline solution so as to be a concentration of 1 mg/ml. The test compound solution was injected to the mice at the tail vein in a dosage volume of 0.1 ml/10 g of the body weight, at just before and one hour after the induction of inflammation response (the treated group). In the control group, saline solution was injected to the mice.
The cell infiltration inhibitory rate was calculated in the same manner as in Experiment 4, by the equation 3.

Data set [5] deals with cell infiltration. The data set can be described thus: Inhibitory effects on cell infiltration (MPO activity in ear tissue of Experiment 3). It is filed as in vivo, Female BALB/c mice. The settings on record: tail vein at 2, 5 and 8 hours. The method, then: as §7, §8
Inhibitory effects on cell infiltration:
According to the report by Bradley, P. P. et al, (cf., Journal of Investigative Dermatology, 78, 206-209 (1982)), the activity of myeloperoxidase (hereinafter, referred to as MPO) in the tissue was used as an index for cell infiltration.
The ear tissue, the weight of which was measured in Experiment 3, was homogenized, and centrifuged. The MPO activity in the supernatant was measured by using the absorbance at 450 nm (hereinafter, referred to as OD) of o-dianisidine as an index, according to the method of Bradley, et al. (see the above reference).
The inhibitory rate on cell infiltration was calculated by the following equation. [formula] ODexp: Average OD in the treated group ODnega: Average OD in the non-inflammatory group
ODcont: Average OD in the control group

Data set [6] in a line: Oral toxicity observation in mice. It is filed as in vivo. The settings on record: 1000 mg/kg orally, observed for one week. An excerpt: Moreover, the compound (I) of the present invention or a salt thereof show low toxicity. […] Therefore, the compound (I) of the present invention or a salt thereof is useful as a medicament.

For the compound `CCCCCCCCCCCCCCC(CCCCCCCCCCCCCC)C(=O)N[C@H](CO[C@@H]1O[C@H]([C@H](C)O)[C@@H](O)[C@@H]1O)C(=O)N[C@@H](CCC(=O)O)C(=O)NC` [compound c, [N-(2-tetradecylhexadecanoyl)-O-(α-L-fucofuranosyl)-D-seryl]-L-glutamic acid 1-methylamide], the 50% inhibitory concentration (IC50) came out at 0.5 µM in data set [1] and 300 nM in data set [3]. For the same compound, the entries for the “Ear swelling inhibitory rate” value in data set [2] (0.1 mg/kg), in data set [2] (1 mg/kg) and in data set [2] (10 mg/kg) were 45%, 59% and 86%, respectively. The “Cell infiltration inhibitory rate” value in data set [4] is listed as 64%; in data set [5] (0.1 mg/kg) it was 19%; in data set [5] (1 mg/kg), 34%; in data set [5] (10 mg/kg), 64%. The “change observed after oral administration” value in data set [6] is listed as “no significant change was observed”.
In the case of `CCCCCCCCCCCCCCC(CCCCCCCCCCCCCC)C(=O)N[C@H](CO[C@@H]1O[C@@H](C)[C@@H](O)[C@@H](O)[C@@H]1O)C(=O)N[C@@H](CCC(=O)O)C(=O)NC` [compound k, [N-(2-tetradecylhexadecanoyl)-O-(α-L-fucopyranosyl)-D-seryl]-L-glutamic acid 1-methylamide], the IC50 in data set [1] came out at 9.4 µM; in data set [3], 700 nM. The “Cell infiltration inhibitory rate” value in data set [4] came to 37%.
